Here are results for ten compounds from US4026891A, “5- Or 6-pyridazinyl-benzimidazoles and salts thereof” (Boehringer Ingelheim GmbH, priority 1974, dated 1977).

Where a name gives a salt, the structure may show the parent alone.

Test [1] deals with mongrel dogs (arterial blood pressure). The experiment in a line: hypotensive activity in anesthetized mongrel dogs. Format: in vivo, dog. The conditions noted are these: average of 3 tests. As for the experimental part: (2) Determination of the hypotensive activity:
The hypotensive activity was determined in mongrel dogs of both sexes (body weight between 19 and 26 kg) under chloralose/urethane (54+ 270 mgm/kg i.v.) and nembutal (10 mgm/kg i.v.) anesthesia. After tracheotomy, the animals were attached to a Harvard artificial respirator using normal air. The arterial blood pressure was measured in the arteria femoralis by a Statham pressure transducer P 23 Dc and registered on a Grass polygraph. The compound under investigation was administered in aqueous solution by intravenous injection into the vena saphena.

Test [2] has as its system thrombocyte aggregation in platelet-rich plasma of healthy human donors. The experiment in a line: thrombocyte (platelet) aggregation inhibiting activity, method of Born and Cross, collagen-induced. The format is cell-based. The conditions noted are these: 10^-4 mol/l, optical density, read-out: Inhibition in % after addition of 10^-4 mol/l, O.D. The protocol: (1) Determination of thrombocyte aggregation inhibiting activity by the method of Born and Cross [see J. Physiol. 170, 397 (1964)]:
The platelet aggregation inhibiting activity was determined in the platelet-rich plasma of healthy human donors. The rate of decline of the optical density of the platelet suspension was measured and recorded photometrically after the addition of commercial collagen containing 1 mgm of collagen fibrils per ml. From the angle of inclination of the density curve, the rate of aggregation was estimated (Vmax). The optical density was taken as the point on the curve where most light was transmitted (O.D.). To provoke maximum aggregation about 0.01 ml of the collagen solution was added to 1 ml of platelet-rich plasma.

The subject of test [3] is isolated, spontaneously beating auricles of the guinea pig. Nature of the test: positive inotropic (cardiotonic) activity on isolated auricles. The format is cell-based. The conditions noted are these: Cavia porcellus, 10^-5 gm/ml, 30° C., average of at least 5 auricles, read-out: Increase in the force of contraction in %. As for the experimental part:
3. Determination of the positive inotropic (cardiotonic) activity
The positive inotropic activity was determined as the strengthening effect upon the force of contraction of isolated, spontaneously beating auricles of the guinea pig. Freshly isolated auricles were put into a bath of 100 ml of a tyrode solution at a temperature of 30° C. The tyrode solution was infused with carbogen (95% of O2 and 5% of CO2). The spontaneous contractions of the auricles were registered isometrically with a Statham-Force-Displacement-transducer FT 03 C on a Grass polygraph. The auricles were pre-stretched with 1 gm. After an equilibration period of 20-30 minutes the test compound was added at a concentration of 10^-^5 gm/ml.

`Cc1nc2ccc(-c3ccc(=O)[nH]n3)cc2[nH]1` [B, 2-Methyl-5(6)-(3'-oxo-2'H-6'-pyridazinyl)-benzimidazole hydrochloride]: in test [1] (0.5 mgm/kg i.v.), the “Decrease in blood pressure (figure after the slash)” value (“Decrease … (figure after the slash)” for short) was 25 mm Hg and the “Decrease in blood pressure (figure before the slash)” value (from here on “Decrease … (figure before the slash)”) turned out to be 18 mm Hg. In test [1] (1.0 mgm/kg i.v.), the “Decrease … (figure after the slash)” value turned out to be 32 mm Hg and the “Decrease … (figure before the slash)” value was found to be 33 mm Hg. In addition, the inhibition at 100 µM in test [2] stood at 100%. Moreover, the activation at 10 µg/mL in test [3] was determined as 20%.

`COc1ccc(-c2nc3ccc(C4=NNC(=O)CC4)cc3[nH]2)c(OC)c1` [C, 2-(o,p-Dimethoxy-phenyl)-5(6)-(3'-oxo-4',5'-dihydro-2'H-6'-pyridazinyl)-benzimidazole]: in test [1] (0.25 mgm/kg i.v.), the “Decrease … (figure after the slash)” value stood at 44 mm Hg and the “Decrease … (figure before the slash)” value came to 17 mm Hg. Besides, in test [1] (1.0 mgm/kg i.v.), the “Decrease … (figure after the slash)” value was 44 mm Hg and the “Decrease … (figure before the slash)” value is on record as 33 mm Hg. The activation at 10 µg/mL in test [3] is 12%.

Take `Cc1nc2ccc(C3=NNC(=O)CC3)cc2[nH]1` [Compound A, 2-Methyl-5(6)-(3'-oxo-4',5'-dihydro-2'H-6'-pyridazinyl)-benzimidazole hydrochloride]: the “Decrease … (figure after the slash)” value in test [1] (0.25 mgm/kg i.v.) is reported as 9 mm Hg; in test [1] (1.0 mgm/kg i.v.), 38 mm Hg. Also, the “Decrease … (figure before the slash)” value in test [1] (0.25 mgm/kg i.v.) was found to be 7 mm Hg; in test [1] (1.0 mgm/kg i.v.), 26 mm Hg. Further, in test [2], the inhibition at 100 µM was determined as 100%. Besides, in test [3], the activation at 10 µg/mL was 30%.

For the compound `COc1ccc(-c2nc3ccc(C4=NNC(=O)CC4)cc3[nH]2)cc1` [Compound I, 2-(p-Methoxy-phenyl)-5(6)-(3'-oxo-4',5'-dihydro-2'H-6'-pyridazinyl)-benzimidazole], the inhibition at 100 µM in test [2] is 100%.

Regarding `Cc1nc2ccc(-c3ccc(N4CCOCC4)nn3)cc2[nH]1` [D, 2-Methyl-5(6)-(3'-morpholino-6'-pyridazinyl)-benzimidazole], the inhibition at 100 µM in test [2] came out at 89%.

`O=C1CCC(c2ccc3nc(-c4ccccc4F)[nH]c3c2)=NN1` [E, 2-(o-Fluoro-phenyl)-5(6)-(3'-oxo-4',5'-dihydro-2'H-6'-pyridazinyl)-benzimidazole hydrochloride]: the activation at 10 µg/mL in test [3] came to 15%.

In the case of `O=C1CCC(c2ccc3nc(C(F)(F)F)[nH]c3c2)=NN1` [F, 2-trifluoromethyl-5(6)-(3'-oxo-4',5'-dihydro-2'H-6'-pyridazinyl)-benzimidazole], the inhibition at 100 µM in test [2] was determined as 100%.

As to `Cc1nc2ccc(C3=NN(C)C(=O)CC3)cc2[nH]1` [G, 2-Methyl-5(6)-(2'-methyl-3'-oxo-4',5'-dihydro-2'H-6'-pyridazinyl)-benzimidazole hydrochloride], the activation at 10 µg/mL in test [3] stood at 13%.

`O=C1CCC(c2ccc3nc[nH]c3c2)=NN1` [H, 5(6)-(3'-oxo-4',5'-dihydro-2'H-6'-pyridazinyl)-benzimidazole]: the inhibition at 100 µM in test [2] came to 100%.

`COc1ccc(-c2nc3ccc(-c4ccc(=O)[nH]n4)cc3[nH]2)cc1` [K, 2-(p-Methoxy-phenyl)-5(6)-(3'-oxo-2'H-6'-pyridazinyl)-benzimidazole methanesulfonate]: the activation at 10 µg/mL in test [3] was determined as 33%.
